Laboratory results from publication PMC2994747, “Molecular Characterization of c-Abl/c-Src Kinase Inhibitors Targeted against Murine Tumour Progenitor Cells that Express Stem Cell Markers” (PLoS ONE, 2010).
Where a name gives a salt, the structure may show the parent alone. Read-outs that look alike come from different tables or passages of the source.

Columns and labels:
[1] = tested on: leukaemia cells; details: cited from earlier work
[2] = tested on: A2C12; assay: MTS cell viability assay; format: cell-based, mouse; details: Mus musculus
How it was run: (§1)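 Triplicate monolayer cultures receive dual kinase inhibitors or 0.2% DMSO for 24 h or 96 h. MTS absorbance at 490 nm, after 1 h incubation with reagent, serves as the viability measure.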

[3] = tested on: GammaD12; assay: MTS cell viability assay; format: cell-based, mouse; details: Mus musculus, MTS
How it was run: as §1

[4] = tested on: GammaA3; assay: MTS cell viability assay; format: cell-based, mouse; details: Mus musculus
How it was run: as §1

[5] = tested on: BetaD5; assay: MTS cell viability assay; format: cell-based, mouse; details: Mus musculus
How it was run: as §1

[6] = tested on: HepG2; assay: MTS cell viability assay; format: cell-based, human; details: Homo sapiens
How it was run: as §1

[7] = tested on: A549; assay: MTS cell viability assay; format: cell-based, human; details: Homo sapiens
How it was run: as §1

[8] = tested on: CaCo2; assay: MTS cell viability assay; format: cell-based, human; details: Homo sapiens
How it was run: as §1

[9] = molecular target: T1, c-Abl (Homo sapiens, UniProt P00519); assay: Abl filter-binding kinase assay (Abtide, [γ-32P]ATP); format: biochemical; details: isolated Abl; calculated from ID50, ATP-competitive; E0 0.005, S0 0.012 µM
T1 construct: His tag; purchased Upstate (Lake Placid, NY, USA)
T1 sequence (P00519 whole entry): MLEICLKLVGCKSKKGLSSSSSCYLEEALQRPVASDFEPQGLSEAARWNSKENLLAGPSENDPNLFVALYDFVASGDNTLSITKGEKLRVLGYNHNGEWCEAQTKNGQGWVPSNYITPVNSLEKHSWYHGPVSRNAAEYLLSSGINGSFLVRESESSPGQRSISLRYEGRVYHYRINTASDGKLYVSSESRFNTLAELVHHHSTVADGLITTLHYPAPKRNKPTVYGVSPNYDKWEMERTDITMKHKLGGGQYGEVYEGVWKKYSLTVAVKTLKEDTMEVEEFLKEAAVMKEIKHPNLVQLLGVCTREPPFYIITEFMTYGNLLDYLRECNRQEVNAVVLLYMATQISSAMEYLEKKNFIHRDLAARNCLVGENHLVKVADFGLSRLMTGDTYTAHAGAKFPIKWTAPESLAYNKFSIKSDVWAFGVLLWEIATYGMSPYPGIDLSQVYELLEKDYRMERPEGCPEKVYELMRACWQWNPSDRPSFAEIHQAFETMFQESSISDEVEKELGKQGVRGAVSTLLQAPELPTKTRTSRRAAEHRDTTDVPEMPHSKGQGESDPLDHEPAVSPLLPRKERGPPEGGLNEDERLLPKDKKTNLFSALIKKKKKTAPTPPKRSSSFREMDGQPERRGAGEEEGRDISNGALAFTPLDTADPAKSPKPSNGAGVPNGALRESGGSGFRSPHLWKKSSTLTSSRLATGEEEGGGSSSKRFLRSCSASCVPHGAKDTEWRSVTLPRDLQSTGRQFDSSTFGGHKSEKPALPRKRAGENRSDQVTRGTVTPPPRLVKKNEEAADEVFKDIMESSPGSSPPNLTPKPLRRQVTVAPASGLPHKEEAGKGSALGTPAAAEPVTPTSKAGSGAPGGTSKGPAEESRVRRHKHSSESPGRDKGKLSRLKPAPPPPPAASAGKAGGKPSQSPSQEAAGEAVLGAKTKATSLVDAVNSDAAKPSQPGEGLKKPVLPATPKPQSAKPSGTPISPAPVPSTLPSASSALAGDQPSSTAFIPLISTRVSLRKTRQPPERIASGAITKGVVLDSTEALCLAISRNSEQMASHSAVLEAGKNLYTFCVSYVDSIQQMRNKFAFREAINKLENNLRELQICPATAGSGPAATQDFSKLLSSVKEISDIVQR
Description: (§2) Baculovirus-produced recombinant purified his-tagged active against human Src and Abl were purchased from Upstate (Lake Placid, NY, USA).
(§3) Src activity was measured in a filter-binding assay using the Src Assay Kit (Upstate, Lake Placid, NY, USA), according to the manufacturer's protocol, using the specific Src peptide substrate [[…]] in the presence of 0.125 pmol of Src and 0.160 pmol of [γ-^32P]ATP. Abl activity was measured in a filter-binding assay using an Abl specific peptide substrate (Abtide, Upstate). Reaction conditions were (in a final volume of 10 µl): 25 mM Tris-HCl pH 7.5, 1 mM DTT, 0.012 µM [γ-^32P]ATP, 0.022 µM c-Abl. Reactions were incubated 10 min at 30°C.The samples (9 µl) were spotted on paper cellulose filters which were washed according to the manufacturer's protocol. Filter-bound radioactivity was measured by liquid scintillation with a Microbeta-Trilux apparatus (PerkinElmer, Waltham, MA, USA).
(§4) The ID50 were converted to Ki according to a competitive mechanism with respect to the substrate ATP. […] Since (i) the ATP concentration was limiting, i.e., [ATP], Km(ATP), and (ii) the enzyme concentration was not negligible with respect to the ATP concentration, the classical Cheng-Prusoff relationship was not applicable. Consequently, Ki values were calculated according to [drawing 3] (2) where S0 is the concentration of the competing substrate (ATP) and E0 is the concentration of the enzyme. Each experiment was done in triplicate and mean values were used for the interpolation. Curve fitting was performed with the program GraphPad Prism.

[10] = tested on: HepG2; assay: Cell cycle analysis by flow cytometry; format: cell-based, human; details: IC50 concentration, 96 h
How it was run: (§5)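 Flow cytometric cell-cycle profiling follows trypsin harvest and PBS washing, with staining via a three-reagent DNA kit (first incubation 10 min at room temperature; final one at 4°C, light-protected) and storage on ice until measurement.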

[11] = tested on: A549; assay: Cell cycle analysis by flow cytometry; format: cell-based, human; details: IC50 concentration, 96 h
How it was run: as §5

[12] = tested on: CaCo2; assay: Cell cycle analysis by flow cytometry; format: cell-based, human; details: IC50 concentration, 96 h
How it was run: as §5

[13] = molecular target: T2, c-Src (Homo sapiens, UniProt P12931); assay: Src filter-binding kinase assay (Src Assay Kit); format: biochemical; details: isolated Src; calculated from ID50, ATP-competitive; E0 0.005, S0 0.012 µM
T2 construct: His tag; purchased Upstate (Lake Placid, NY, USA)
T2 sequence (P12931 whole entry): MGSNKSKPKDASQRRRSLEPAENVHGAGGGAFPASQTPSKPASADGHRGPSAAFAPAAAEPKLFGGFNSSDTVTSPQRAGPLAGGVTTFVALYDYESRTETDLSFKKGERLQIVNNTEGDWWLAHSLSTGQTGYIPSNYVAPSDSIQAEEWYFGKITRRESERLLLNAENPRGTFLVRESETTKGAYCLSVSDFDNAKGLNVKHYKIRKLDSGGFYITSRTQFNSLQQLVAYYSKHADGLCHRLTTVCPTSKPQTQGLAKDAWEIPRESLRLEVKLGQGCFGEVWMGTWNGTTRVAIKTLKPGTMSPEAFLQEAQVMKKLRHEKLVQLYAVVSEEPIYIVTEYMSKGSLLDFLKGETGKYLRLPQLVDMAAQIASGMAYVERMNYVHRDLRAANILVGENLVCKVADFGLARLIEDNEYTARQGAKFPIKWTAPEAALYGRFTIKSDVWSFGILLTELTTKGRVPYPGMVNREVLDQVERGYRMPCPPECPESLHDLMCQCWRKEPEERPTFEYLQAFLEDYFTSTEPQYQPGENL
Description: as §2, §3, §4

[14] = tested on: A2C12; assay: Cell cycle analysis by flow cytometry; format: cell-based, mouse; details: IC50 concentration, 96 h
How it was run: as §5

[15] = tested on: GammaD12; assay: Cell cycle analysis by flow cytometry; format: cell-based, mouse; details: IC50 concentration, 96 h
How it was run: as §5

[16] = tested on: GammaA3; assay: Cell cycle analysis by flow cytometry; format: cell-based, mouse; details: IC50 concentration, 96 h
How it was run: as §5

[17] = tested on: BetaD5; assay: Cell cycle analysis by flow cytometry; format: cell-based, mouse; details: IC50 concentration, 96 h
How it was run: as §5

[18] = 24 h, read-out: Calculated IC50 after single treatment for 24 h
[19] = 96 h, read-out: Calculated IC50 after daily treatment for 96 h

In the case of Cc1ccc(NC(=O)c2ccc(CN3CCN(C)CC3)cc2)cc1Nc1nccc(-c2cccnc2)n1 [Imatinib, Imatinib mesylate], the “Antiproliferative effect for leukaemia cells” value [1] is given as “submicromolar range”.
In the case of CC(C)Sc1nc(NCCc2ccccc2)c2cnn(CC(Cl)c3ccccc3)c2n1 (stereo not drawn) [Si142], the IC50 [2, 18] is reported as 40.4 ± 2.1 µM, the IC50 [2, 19] is reported as 5.3 ± 0.2 µM and the IC50 [3, 18] is reported as 11.8 ± 1.6 µM. It also gave an IC50 [3, 19] of 7.7 ± 0.5 µM, an IC50 [4, 18] of 18.7 ± 4 µM and an IC50 [4, 19] of 7.1 ± 0.5 µM. It also gave an IC50 [5, 18] of 11 ± 0.7 µM, an IC50 [5, 19] of 8.7 ± 0.7 µM and an IC50 [6, 18] of 89.2 ± 4.6 µM. For the same compound, the IC50 [6, 19] was 16.9 ± 2.6 µM, the IC50 ([7]; A549, 24 h, 24 h, read-out: Calculated IC50 after single treatment for 24 h) was over 100 µM and the IC50 ([7]; A549, 96 h, 96 h, read-out: Calculated IC50 after daily treatment for 96 h) was 8.1 ± 0.7 µM. The IC50 ([8]; Caco-2, 24 h, read-out: Calculated IC50 after single treatment for 24 h) was 89.2 ± 4.6 µM, the IC50 ([8]; Caco-2, 96 h, read-out: Calculated IC50 after daily treatment for 96 h) was 6.8 ± 0.9 µM and the melting point was 125 to 126 °C. The Ki [9] was 0.12 µM, the “Cells in G1 phase” value [10] was 53.5% and the “Cells in G2 phase” value [10] was 7.9%. For the same compound, the “Cells in S phase” value [10] was 38.6%, the “Cells in G1 phase” value [11] was 75.4% and the “Cells in G2 phase” value [11] was 2.2%. The “Cells in S phase” value [11] was 25.7%, the “Cells in G1 phase” value [12] was 55.6% and the “Cells in G2 phase” value [12] was 11.5%. The “Cells in S phase” value [12] was 32.9%, the Ki [13] was 2 µM and the “Cells in G1 phase” value [14] was 71.3%. For the same compound, the “Cells in G2 phase” value [14] was 13.4%, the “Cells in S phase” value [14] was 15.3% and the “Cells in G1 phase” value [15] was 33.7%. The “Cells in G2 phase” value [15] was 6.6%, the “Cells in S phase” value [15] was 59.7% and the “Cells in G1 phase” value [16] was 67%. The “Cells in G2 phase” value [16] was 15.5%, the “Cells in S phase” value [16] was 17.5% and the “Cells in G1 phase” value [17] was 53.6%. The “Cells in G2 phase” value [17] was 25.8% and the “Cells in S phase” value [17] was 20.6%.
